Assay results from patent US11040035B2, “3-oxo-2,6-diphenyl-2,3-dihydropyridazine-4-carboxamides” (BAYER PHARMA AKTIENGESELLSCHAFT, priority 2016, dated 2021).

Assays:
AHR [1] = molecular target: T1, AHR (Homo sapiens, UniProt P35869); assay: In vitro assay 2: agonism in human cell line (transactivation assay)
T1 sequence (P35869 11-848): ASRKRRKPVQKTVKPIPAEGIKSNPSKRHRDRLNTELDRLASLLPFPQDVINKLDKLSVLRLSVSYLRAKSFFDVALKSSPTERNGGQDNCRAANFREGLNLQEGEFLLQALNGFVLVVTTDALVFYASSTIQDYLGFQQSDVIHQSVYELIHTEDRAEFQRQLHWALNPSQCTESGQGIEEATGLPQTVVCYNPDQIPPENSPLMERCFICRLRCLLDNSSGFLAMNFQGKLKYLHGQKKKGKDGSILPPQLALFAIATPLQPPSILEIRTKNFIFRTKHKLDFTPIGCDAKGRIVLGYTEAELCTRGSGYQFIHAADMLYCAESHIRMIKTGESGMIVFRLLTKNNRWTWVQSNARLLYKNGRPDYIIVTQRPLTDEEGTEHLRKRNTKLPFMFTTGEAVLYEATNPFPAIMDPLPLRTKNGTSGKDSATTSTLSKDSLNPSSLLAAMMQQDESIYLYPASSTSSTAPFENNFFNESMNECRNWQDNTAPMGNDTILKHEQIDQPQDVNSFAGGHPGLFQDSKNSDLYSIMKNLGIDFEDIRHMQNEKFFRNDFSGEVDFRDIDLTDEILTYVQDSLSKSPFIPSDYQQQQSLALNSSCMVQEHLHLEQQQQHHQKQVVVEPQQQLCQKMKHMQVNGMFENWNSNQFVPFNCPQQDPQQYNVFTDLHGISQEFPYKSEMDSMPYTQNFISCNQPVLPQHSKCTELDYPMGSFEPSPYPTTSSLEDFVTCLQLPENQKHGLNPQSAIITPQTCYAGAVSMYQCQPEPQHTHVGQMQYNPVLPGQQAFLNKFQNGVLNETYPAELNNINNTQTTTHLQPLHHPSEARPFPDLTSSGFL

AHR [2] = molecular target: T1, AHR; assay: In vitro assay 1: antagonism in human cell line (transactivation assay, kynurenic acid prestimulated); settings: Assay 1: AHR-luc Hum Antagonism IC50 [M], 150 μM kynurenic acid, 20 hours, firefly luciferase
[3] = Assay 2: AHR-luc Hum Agonism IC50 [M], no kynurenic acid, 20 hours, firefly luciferase
[4] = read-out: Assay 2: AHR-luc Hum Agonism IC50, no kynurenic acid, 20 hours, firefly luciferase

| Compound | IC50 (AHR [1]; [3]) | IC50 (AHR [2]) | IC50 (AHR [1]; [4]) |
| --- | --- | --- | --- |
| NC(=O)[C@H](CO)NC(=O)c1cc(-c2ccc(Cl)cc2)nn(-c2cccc(F)c2)c1=O [Example 162, N-[(2S)-1-Amino-3-hydroxy-1-oxopropan-2-yl]-6-(4-chlorophenyl)-2-(3-fluorophenyl)-3-oxo-2,3-dihydropyridazine-4-carboxamide] | > 2e-05 M | 4.83e-07 M | – |
| C[C@H](O)[C@H](C)NC(=O)c1cc(-c2ccc(OC(F)F)cc2)nn(-c2cccc(F)c2)c1=O (relative stereo) [Example 143, rel-6-[4-(Difluoromethoxy)phenyl]-2-(3-fluorophenyl)-N-[(2S,3S)-3-hydroxybutan-2-yl]-3-oxo-2,3-dihydropyridazine-4-carboxamide] | > 2e-05 M | 8.07e-08 M | – |
| O=C(NCC(O)C(F)(F)F)c1cc(-c2ccc(Cl)cc2)nn(-c2ccccc2)c1=O (stereo not drawn) [Example 76, 6-(4-chlorophenyl)-3-oxo-2-phenyl-N-(3,3,3-trifluoro-2-hydroxypropyl)-2,3-dihydropyridazine-4-carboxamide] | > 2e-05 M | 9.37e-08 M | – |
| COc1ccc(-c2cc(C(=O)NCC(O)C(F)(F)F)c(=O)n(-c3cccc(F)c3)n2)cc1 (stereo not drawn) [Example 126, 2-(3-Fluorophenyl)-6-(4-methoxyphenyl)-3-oxo-N-(3,3,3-trifluoro-2-hydroxypropyl)-2,3-dihydropyridazine-4-carboxamide] | > 2e-05 M | 5.13e-08 M | – |
| O=C(NC(CO)C1CCOC1)c1cc(-c2ccc(Cl)cc2)nn(-c2cccc(F)c2)c1=O (single isomer, unassigned) [Example 42, 6-(4-Chlorophenyl)-2-(3-fluorophenyl)-N-[2-hydroxy-1-(tetrahydrofuran-3-yl)ethyl]-3-oxo-2,3-dihydropyridazine-4-carboxamide] | – | 3.44e-07 M | > 2e-05 M |
| O=C(NCC(O)C1CC1)c1cc(-c2ccc(Cl)cc2)nn(-c2cccc(F)c2)c1=O (racemic) [Example 190, 6-(4-Chlorophenyl)-N-[(2RS)-2-cyclopropyl-2-hydroxyethyl]-2-(3-fluorophenyl)-3-oxo-2,3-dihydropyridazine-4-carboxamide] | > 2e-05 M | 2.77e-07 M | – |
| CC(C)C(O)CNC(=O)c1cc(-c2ccc(Cl)cc2)nn(-c2cccc(Cl)c2)c1=O (single isomer, unassigned) [Example 68, 2-(3-Chlorophenyl)-6-(4-chlorophenyl)-N-(2-hydroxy-3-methylbutyl)-3-oxo-2,3-dihydropyridazine-4-carboxamide] | > 2e-05 M | 3.7e-07 M | – |
| CC(CO)CNC(=O)c1cc(-c2ccc(Cl)cc2)nn(-c2cccc(F)c2)c1=O (racemic) [Example 200, 6-(4-Chlorophenyl)-2-(3-fluorophenyl)-N-[(2RS)-3-hydroxy-2-methylpropyl]-3-oxo-2,3-dihydropyridazine-4-carboxamide] | > 2e-05 M | 7.5e-08 M | – |
| CC(O)C(C)NC(=O)c1cc(-c2ccc(OC(F)(F)F)cc2)nn(-c2cccc(F)c2)c1=O (stereo not drawn) [Example 179, 2-(3-Fluorophenyl)-N-(3-hydroxybutan-2-yl)-3-oxo-6-[4-(trifluoromethoxy)phenyl]-2,3-dihydropyridazine-4-carboxamide] | > 2e-05 M | 7.36e-08 M | – |
| O=C(NCC(O)C(F)(F)F)c1cc(-c2ccc(OC(F)F)cc2)nn(-c2cccc(F)c2)c1=O (single isomer, unassigned) [Example 122, 6-[4-(Difluoromethoxy)phenyl]-2-(3-fluorophenyl)-3-oxo-N-(3,3,3-trifluoro-2-hydroxypropyl)-2,3-dihydropyridazine-4-carboxamide] | – | 1.38e-07 M | > 2e-05 M |
| CC(O)CNC(=O)c1cc(-c2ccc(Cl)cc2)nn(-c2cccc(F)c2)c1=O (stereo not drawn) [Example 34, 6-(4-Chlorophenyl)-2-(3-fluorophenyl)-N-(2-hydroxypropyl)-3-oxo-2,3-dihydropyridazine-4-carboxamide] | > 2e-05 M | 1.88e-07 M | – |
| COc1ccc(-c2cc(C(=O)NC(C)C(C)O)c(=O)n(-c3cccc(F)c3)n2)cc1 (stereo not drawn) [Example 138, 2-(3-Fluorophenyl)-N-(3-hydroxybutan-2-yl)-6-(4-methoxyphenyl)-3-oxo-2,3-dihydropyridazine-4-carboxamide] | > 2e-05 M | 5.02e-08 M | – |
| CC(O)C(NC(=O)c1cc(-c2ccc(Cl)cc2)nn(-c2cccc(F)c2)c1=O)C(F)(F)F (single isomer, unassigned) [Example 199, Isomer no. 2 of 6-(4-chlorophenyl)-2-(3-fluorophenyl)-3-oxo-N-(1,1,1-trifluoro-3-hydroxybutan-2-yl)-2,3-dihydropyridazine-4-carboxamide] | – | 5.84e-07 M | > 2e-05 M |

Next, values leading:

| IC50 (AHR [1]; [3]) | IC50 (AHR [2]) | IC50 (AHR [1]; [4]) | Compound |
| --- | --- | --- | --- |
| > 2e-05 M | 6.47e-08 M | – | O=C(NCC1(O)CCCC1)c1cc(-c2ccc(Cl)cc2)nn(-c2cccc(F)c2)c1=O [Example 326, 6-(4-chlorophenyl)-2-(3-fluorophenyl)-N-[(1-hydroxycyclopentyl)methyl]-3-oxo-2,3-dihydropyridazine-4-carboxamide] |
| > 2e-05 M | 1.21e-07 M | – | C[C@H](O)[C@H](C)NC(=O)c1cc(-c2ccc(Cl)c(Cl)c2)nn(-c2cccc(F)c2)c1=O (relative stereo) [Example 305, rel-6-(3,4-Dichlorophenyl)-2-(3-fluorophenyl)-N-[(2S,3S)-3-hydroxybutan-2-yl]-3-oxo-2,3-dihydropyridazine-4-carboxamide] |
| > 2e-05 M | 2.06e-08 M | – | O=C(N[C@@H]1CCCC(F)(F)[C@H]1O)c1cc(-c2ccc(Cl)cc2)nn(-c2cccc(F)c2)c1=O (relative stereo) [Example 274, 6-(4-Chlorophenyl)-N-[(trans)-3,3-difluoro-2-hydroxycyclohexyl]-2-(3-fluorophenyl)-3-oxo-2,3-dihydropyridazine-4-carboxamide] |
| > 2e-05 M | 4.7e-08 M | – | C[C@@H](NC(=O)c1cc(-c2ccc(OC(F)(F)F)cc2)nn(-c2cccc(F)c2)c1=O)C(C)(C)O [Example 381, 2-(3-fluorophenyl)-N-[(2R)-3-hydroxy-3-methylbutan-2-yl]-3-oxo-6-[4-(trifluoromethoxy)phenyl]-2,3-dihydropyridazine-4-carboxamide] |
| > 2e-05 M | 1e-08 M | – | C[C@H](NC(=O)c1cc(-c2ccc(C(F)(F)F)cc2)nn(-c2cccc(F)c2)c1=O)C(C)(C)O [Example 391, 2-(3-fluorophenyl)-N-[(2S)-3-hydroxy-3-methylbutan-2-yl]-3-oxo-6-[4-(trifluoromethyl)phenyl]-2,3-dihydropyridazine-4-carboxamide] |
| > 2e-05 M | 7.64e-08 M | – | O=C(NCC(O)C(F)F)c1cc(-c2ccc(Cl)cc2)nn(-c2cccc(F)c2)c1=O (racemic) [Example 221, 6-(4-Chlorophenyl)-N-[(2RS)-3,3-difluoro-2-hydroxypropyl]-2-(3-fluorophenyl)-3-oxo-2,3-dihydropyridazine-4-carboxamide] |
| > 2e-05 M | 8.32e-08 M | – | O=C(NC1(CO)CCCC1)c1cc(-c2ccc(Cl)cc2)nn(-c2cccc(F)c2)c1=O [Example 214, 6-(4-Chlorophenyl)-2-(3-fluorophenyl)-N-[1-(hydroxymethyl)cyclopentyl]-3-oxo-2,3-dihydropyridazine-4-carboxamide] |
| > 2e-05 M | 2.31e-07 M | – | N#Cc1cccc(-n2nc(-c3ccc(Cl)cc3)cc(C(=O)NCC(O)C(F)(F)F)c2=O)c1 (stereo not drawn) [Example 362, 6-(4-chlorophenyl)-2-(3-cyanophenyl)-3-oxo-N-(3,3,3-trifluoro-2-hydroxypropyl)-2,3-dihydropyridazine-4-carboxamide] |
| > 2e-05 M | 3.18e-08 M | – | CC[C@@H](CO)NC(=O)c1cc(-c2ccc(OC)cc2)nn(-c2cccc(F)c2)c1=O [Example 298, 2-(3-Fluorophenyl)-N-[(2S)-1-hydroxybutan-2-yl]-6-(4-methoxyphenyl)-3-oxo-2,3-dihydropyridazine-4-carboxamide] |
| > 2e-05 M | 3.35e-07 M | – | O=C(NC(CO)CO)c1cc(-c2ccc(Cl)cc2)nn(-c2cccc(F)c2)c1=O [Example 228, 6-(4-Chlorophenyl)-N-(1,3-dihydroxypropan-2-yl)-2-(3-fluorophenyl)-3-oxo-2,3-dihydropyridazine-4-carboxamide] |
| > 2e-05 M | 1.91e-07 M | – | O=C(NCC(O)C(F)(F)F)c1cc(-c2ccc(Cl)c(F)c2)nn(-c2cccc(F)c2)c1=O (single isomer, unassigned) [Example 283, 6-(4-chloro-3-fluorophenyl)-2-(3-fluorophenyl)-3-oxo-N-(3,3,3-trifluoro-2-hydroxypropyl)-2,3-dihydropyridazine-4-carboxamide] |
